Columns and labels:
COLO 205 cells [1] = assay: Annexin V-FITC/PI apoptosis assay by flow cytometry; assay type: cell-based; settings: 72 h; for total apoptosis (early apoptosis and advanced apoptosis): mean of three independent determinations
Procedure: Quantitative analysis of early-apoptotic cells, advanced-apoptotic cells and necrotic cells was determined. COLO 205 cells were stimulated with different concentrations of compound 10a for 72 h. […] The total apoptosis including early apoptosis and advanced apoptosis accounted for 58.8%, 29.3% and 21.0% (the mean value of three independent determinations) when COLO 205 cells were treated with compound 10a at the concentration of 1.0 μM, 0.33 μM and 0.11 μM, respectively.
COLO 205 cells (2.5 × 10^5) were seeded in two 12-well plates and treated with DMSO and compound 10a (0.11 μM, 0.33 μM and 1.0 μM) for 72 h (37 °C, 5% CO2). The cells were collected, centrifuged at 1000 rpm for 5 min, and then washed with cold PBS for twice. Apoptosis assays were conducted with CytoFLEX S (Beckman Coulter).

VEGFR-2 = VEGFR-2 (Homo sapiens, UniProt P35968); assay: Mobility shift assay, VEGFR-2; assay type: biochemical; settings: mean of two independent experiments, SD shown
Procedure: (§1) Kinase inhibitory activity against HGFR, MST1R, ABL, PDGFRβ, AXL, FLT3, RET, c-Src, and VEGFR-2 was evaluated by the mobility shift assay. Detailed operation could be found in our previous research.

COLO 205 cells [2] = assay: MTT assay, cytotoxic activity against COLO 205; assay type: cell-based
Source text: Taking lead compound BC2021-104511-15i, Fruquintinib and Regorafenib as positive controls, the cytotoxic activity against HT-29, HCT-116, COLO-205 and FHC cell lines by MTT assay. Detailed operation could be found in our previous study.

RET = RET (Homo sapiens, UniProt P07949); assay: Mobility shift assay, RET; assay type: biochemical; settings: mean of two independent experiments, SD shown
Procedure: as §1

VEGFR-2, sequence (P35968 20-1356): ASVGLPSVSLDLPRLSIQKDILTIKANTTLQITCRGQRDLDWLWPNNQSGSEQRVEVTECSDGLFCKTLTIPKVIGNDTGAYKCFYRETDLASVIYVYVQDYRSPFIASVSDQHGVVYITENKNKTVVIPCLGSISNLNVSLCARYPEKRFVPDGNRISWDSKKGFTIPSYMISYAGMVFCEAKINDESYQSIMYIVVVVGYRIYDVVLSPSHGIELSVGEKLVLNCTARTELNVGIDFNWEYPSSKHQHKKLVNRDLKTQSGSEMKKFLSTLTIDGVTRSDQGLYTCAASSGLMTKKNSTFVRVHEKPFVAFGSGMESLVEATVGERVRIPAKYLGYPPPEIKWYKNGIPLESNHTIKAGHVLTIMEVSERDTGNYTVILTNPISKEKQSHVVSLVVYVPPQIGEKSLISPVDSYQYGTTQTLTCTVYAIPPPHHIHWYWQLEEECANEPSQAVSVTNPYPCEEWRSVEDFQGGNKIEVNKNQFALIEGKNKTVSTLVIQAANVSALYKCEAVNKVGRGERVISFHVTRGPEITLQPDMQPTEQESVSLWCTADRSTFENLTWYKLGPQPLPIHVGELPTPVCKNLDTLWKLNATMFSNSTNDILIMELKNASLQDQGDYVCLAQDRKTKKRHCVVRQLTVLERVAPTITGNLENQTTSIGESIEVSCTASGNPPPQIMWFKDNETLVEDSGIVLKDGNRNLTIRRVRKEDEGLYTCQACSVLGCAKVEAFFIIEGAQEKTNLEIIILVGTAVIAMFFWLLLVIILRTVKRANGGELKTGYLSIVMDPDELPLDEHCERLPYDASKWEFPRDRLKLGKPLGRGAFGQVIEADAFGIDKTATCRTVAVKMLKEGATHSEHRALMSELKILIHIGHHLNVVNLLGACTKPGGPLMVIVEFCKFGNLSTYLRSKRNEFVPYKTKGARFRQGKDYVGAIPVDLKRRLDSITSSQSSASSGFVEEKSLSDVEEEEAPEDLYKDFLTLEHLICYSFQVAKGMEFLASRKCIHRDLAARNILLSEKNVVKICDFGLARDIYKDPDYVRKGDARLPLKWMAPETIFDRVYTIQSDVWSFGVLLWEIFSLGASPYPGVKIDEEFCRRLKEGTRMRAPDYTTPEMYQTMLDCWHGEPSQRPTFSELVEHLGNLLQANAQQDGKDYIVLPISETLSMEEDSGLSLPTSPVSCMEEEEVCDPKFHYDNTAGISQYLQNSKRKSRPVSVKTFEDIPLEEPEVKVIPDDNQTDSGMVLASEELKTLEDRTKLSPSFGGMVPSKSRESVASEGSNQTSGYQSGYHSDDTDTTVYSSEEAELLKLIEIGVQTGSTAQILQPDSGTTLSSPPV
RET, sequence (P07949 29-1114): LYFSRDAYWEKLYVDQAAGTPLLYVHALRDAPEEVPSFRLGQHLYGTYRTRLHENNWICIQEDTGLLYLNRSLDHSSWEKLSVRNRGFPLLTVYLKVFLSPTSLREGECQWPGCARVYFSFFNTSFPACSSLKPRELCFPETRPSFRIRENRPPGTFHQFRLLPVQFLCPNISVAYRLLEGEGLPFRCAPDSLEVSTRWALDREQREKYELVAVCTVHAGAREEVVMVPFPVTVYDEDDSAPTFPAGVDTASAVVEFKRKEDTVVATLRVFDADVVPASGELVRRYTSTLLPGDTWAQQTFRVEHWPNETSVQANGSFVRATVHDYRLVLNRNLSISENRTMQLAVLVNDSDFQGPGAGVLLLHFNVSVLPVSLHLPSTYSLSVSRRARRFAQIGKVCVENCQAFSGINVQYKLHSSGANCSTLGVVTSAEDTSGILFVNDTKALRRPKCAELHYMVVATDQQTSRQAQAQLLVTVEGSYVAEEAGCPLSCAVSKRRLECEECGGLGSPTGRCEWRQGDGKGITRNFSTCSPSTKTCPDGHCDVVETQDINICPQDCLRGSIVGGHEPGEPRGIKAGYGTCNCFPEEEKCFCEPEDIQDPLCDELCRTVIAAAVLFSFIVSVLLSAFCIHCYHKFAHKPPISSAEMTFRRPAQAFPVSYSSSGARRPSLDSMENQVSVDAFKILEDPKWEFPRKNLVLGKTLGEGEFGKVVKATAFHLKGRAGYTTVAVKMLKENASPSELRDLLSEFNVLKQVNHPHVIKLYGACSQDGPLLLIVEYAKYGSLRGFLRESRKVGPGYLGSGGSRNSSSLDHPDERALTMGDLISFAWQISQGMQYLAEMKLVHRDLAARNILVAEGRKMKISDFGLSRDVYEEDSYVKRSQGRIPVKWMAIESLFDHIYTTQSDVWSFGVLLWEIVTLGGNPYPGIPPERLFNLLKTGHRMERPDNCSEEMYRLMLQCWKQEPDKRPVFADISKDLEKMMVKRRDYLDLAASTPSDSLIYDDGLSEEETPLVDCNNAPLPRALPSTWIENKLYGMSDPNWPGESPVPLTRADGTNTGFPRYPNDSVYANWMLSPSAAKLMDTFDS

COc1cc2c(Oc3ccc(NC(=O)NN4C(=O)CSC4c4c(F)cccc4F)cc3F)ccnc2cc1OC1CCN(CC(N)=O)CC1 (stereo not drawn) [Compound 10a, 2–(4-((4–(4-(3–(2-(2,6-Difluorophenyl)-4-oxothiazolidin-3-yl)ureido)-2-fluorophenoxy)-6-methoxyquinolin-7-yl)oxy)piperidin-1-yl)acetamide] was tested, and the “total apoptosis (early apoptosis and advanced apoptosis)” value (“total apoptosis” for short) (COLO 205 cells [1]; COLO 205, 0.11 μM) was 21.0%, the “total apoptosis” value (COLO 205 cells [1]; COLO 205, 0.33 μM) was 29.3% and the “total apoptosis” value (COLO 205 cells [1]; COLO 205, 1.0 μM) was 58.8%. For the same molecule, the induction of apoptosis (COLO 205 cells [1]; COLO 205, 0.11–1.0 μM) was “could effectively induce COLO 205 cells apoptosis in a dose-dependent manner”, the IC50 (VEGFR-2) was 1160 ± 110 nM and the “fold more potent than Regorafenib and Fruquintinib against COLO 205” value (COLO 205 cells [2]; COLO 205 IC50 compared with Regorafenib and Fruquintinib) was “over 90 fold”. For the same molecule, the “cell selectivity index (FHC IC50 value vs COLO 205 IC50 value)” value (COLO 205 cells [2]; COLO 205 relative to FHC cells) was “over 90 fold”, the IC50 (COLO 205 cells [2]; Homo sapiens, COLO 205, MTT, average of three separate determinations, SD shown) was 110 ± 24 nM and the IC50 (RET) was 1270 ± 100 nM.

From publication PMC9448386, “Discovery of novel conjugates of quinoline and thiazolidinone urea as potential anti-colorectal cancer agent” (Journal of Enzyme Inhibition and Medicinal Chemistry, 2022)
